PMC9228089, “1,5-Benzothiazepine Derivatives: Green Synthesis, In Silico and In Vitro Evaluation as Anticancer Agents” (Molecules, 2022)

Columns and labels:
[1] = molecular target: GSK-3β (Homo sapiens, UniProt P49841); assay: GSK-3β inhibitory assay (Kinase-Glo luminescence); conditions: for inhibition at 50 µM: read-out: % of Inhibition at 50 µM, 50 µM, triplicate
Method: Briefly, the assay procedure was as follows. […] The activity was determined by the difference between total and consumed ATP. The inhibition activity was determined using the maximal activity in the absence of the inhibitor and the maximal inhibition in the presence of the reference drug. IC50 values were determined using the GraphPad Prism 4.0 tool (GraphPad Software Inc., San Diego, CA, USA).

[2] = tested on: Hep G-2; assay: MTT cytotoxicity assay, liver cancer cell line; format: cell-based, human
Method: (§1) HepG-2, and DU-145 human tumor cell lines were grown in DMEM medium supplemented with Glutamax-I and glucose. A pseudo-normal human embryonic liver cell line (L02) was used to study the cytotoxicity of the synthesized compounds. The cell culture medium was supplemented with fetal calf serum (10% v/v), penicillin (100 IU/mL), and streptomycin (100 µg/mL), then preserved at 37 °C.
(§2) A spectrophotometric MTT reagent assay was employed to assess the cytotoxic activity of the synthesized compounds. In brief, the grown cells (approx. 5 × 10^3 count) were placed in each well of a 96-well plate and 100 µL of the culture medium was added along with the synthesized compounds (1–100 µmol/L). The well plate was subjected to incubation for 72 h; later, 10 µL of MTT (5 mg/mL) was added to each well. The well plate was further incubated for 4 h at 37 °C. The resulting insoluble formazan was dissolved by adding sodium dodecyl sulfate (100 µL, 10%) to each well and continuing incubation for an additional 12 h. Later, the 96-well plate was used to measure the absorbance at the 540 nm and 630 nm reference wavelengths using the spectrophotometer. The blank absorbance was treated as a control and the IC50 values were determined by a non-linear regression model with the help of normalized dose-response data acquired via MTT assay.

[3] = tested on: DU-145; assay: MTT cytotoxicity assay, prostate cancer cell line; format: cell-based, human
Method: as §1, §2

[4] = tested on: L02; assay: MTT cytotoxicity assay, embryonic liver cell line (selective toxicity); format: cell-based; conditions: for inhibition at 100 µM: L02, human embryonic liver cell line
Method: as §1, §2

Chain of GSK-3β (P49841 whole entry): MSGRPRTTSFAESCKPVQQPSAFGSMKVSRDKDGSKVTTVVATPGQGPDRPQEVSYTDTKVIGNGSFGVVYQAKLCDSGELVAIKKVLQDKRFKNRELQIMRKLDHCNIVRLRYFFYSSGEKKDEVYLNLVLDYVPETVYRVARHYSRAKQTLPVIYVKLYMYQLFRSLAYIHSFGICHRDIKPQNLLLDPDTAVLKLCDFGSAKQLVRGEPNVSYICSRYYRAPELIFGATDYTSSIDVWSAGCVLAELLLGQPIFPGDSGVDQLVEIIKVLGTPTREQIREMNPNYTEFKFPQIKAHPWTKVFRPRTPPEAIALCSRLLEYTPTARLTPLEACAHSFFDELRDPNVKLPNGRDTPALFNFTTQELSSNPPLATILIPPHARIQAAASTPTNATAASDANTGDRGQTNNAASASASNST

Row | SMILES | inhibition at 50 µM [1] | IC50 ([2]; Homo sapiens, HepG2, 72 h) | IC50 ([3]; Homo sapiens, DU-145, 72 h) | inhibition at 100 µM [4] | melting point | % of Inhibition at 50 µM [1] | IC50 ([2]; 72 h) | IC50 ([3]; 72 h) | % Inhibition (100 µM) L02 ([4]; human embryonic liver cell line)
1 | Cc1ccc2c(c1)N=C(c1cc(Br)cc(I)c1O)CC(c1ccc(N(C)C)cc1)S2 (stereo not drawn) [2h, 4-bromo-2-(2-(4-(dimethylamino)phenyl)-7-methyl-2,3-dihydrobenzo[b][1,4]thiazepin-4-yl)-6-iodophenol] | 61.9 ± 3.47% | 8.56 ± 0.14 µM | 36.8 ± 0.18 µM | 46.1 ± 1.05% | 244 to 246 °C |  |  |  | 
2 | Cc1ccc2c(c1)N=C(c1cc(Cl)cc(Br)c1O)CC(c1ccc(N(C)C)cc1)S2 (stereo not drawn) [2f, 2-bromo-4-chloro-6-(2-(4-(dimethylamino)phenyl)-7-methyl-2,3-dihydrobenzo [b][1,4]thiazepin-4-yl)phenol] | 89.7 ± 1.65% | 4.38 ± 0.11 µM | 24.58 ± 0.13 µM | 28.4 ± 1.18% | 244 to 246 °C |  |  |  | 
3 | Cc1ccc2c(c1)N=C(c1cc(Cl)cc(I)c1O)CC(c1ccc(N(C)C)cc1)S2 (stereo not drawn) [2d, 4-chloro-2-(2-(4-(dimethylamino)phenyl)-7-methyl-2,3-dihydrobenzo[b][1,4]thiazepine-4-yl)-6-iodophenol] | 61.1 ± 1.98% | 7.89 ± 0.22 µM | 36.17 ± 0.14 µM | 31.4 ± 1.14% | 244 to 246 °C |  |  |  | 
4 | Cc1ccc2c(c1)N=C(c1cc(Br)cc(Br)c1O)CC(c1ccc(N(C)C)cc1)S2 (stereo not drawn) [2g, 2,4-dibromo-6-(2-(4-(dimethylamino)phenyl)-7-methyl-2,3-dihydrobenzo[b][1,4]hiazepine-4-yl)phenol] |  |  |  |  |  | 87.62 ± 2.54% | 8.32 ± 0.16 µM | 28.53 ± 0.14 µM | 15.56 ± 1.29%
5 | Cc1ccc2c(c1)N=C(c1cc(C)cc(Br)c1O)CC(c1ccc(N(C)C)cc1)S2 (stereo not drawn) [2e, 2-bromo-6-(2-(4-(dimethylamino)phenyl)-7-methyl-2,3-dihydrobenzo[b][1,4]thiazepine-4-yl)-4-methylphenol] | 66.6 ± 2.51% | 6.87 ± 0.15 µM | 37.52 ± 0.27 µM | 52.2 ± 1.42% | 244 to 246 °C |  |  |  | 
6 | Cc1ccc2c(c1)N=C(c1cc(C)cc(I)c1O)CC(c1ccc(N(C)C)cc1)S2 (stereo not drawn) [2b, 2-(2-(4-(dimethylamino)phenyl)-7-methyl-2,3-dihydrobenzo[b][1,4]thiazepin-4-yl)-6-iodo-4-methylphenol] | 60.7 ± 2.85% | 8.26 ± 0.26 µM | 41.34 ± 0.12 µM | 19.6 ± 0.97% | 218 to 220 °C |  |  |  | 
7 | Cc1ccc2c(c1)N=C(c1cc(Cl)cc(Cl)c1O)CC(c1ccc(N(C)C)cc1)S2 (stereo not drawn) [2c, 2,4-dichloro-6-(2-(4-(dimethylamino)phenyl)-7-methyl-2,3-dihydrobenzo[b][1,4]thiazepin-4-yl)phenol] | > 90% | 3.29 ± 0.15 µM | 20.45 ± 0.19 µM | 19.3 ± 1.25% | 222 to 224 °C |  |  |  | 
8 | Cc1ccc2c(c1)N=C(c1cc(I)cc(I)c1O)CC(c1ccc(N(C)C)cc1)S2 (stereo not drawn) [2a, 2-(2-(4-(dimethylamino)phenyl)-7-methyl-2,3-dihydrobenzo[b][1,4]thiazepin-4-yl)-4,6-diiodophenol] | 62.4 ± 2.21% | 7.52 ± 0.13 µM | 32.74 ± 0.13 µM | 28.2 ± 1.68% | 230 to 232 °C |  |  |  | 
9 | CN(Cc1cnc2nc(N)nc(N)c2n1)c1ccc(C(=O)N[C@@H](CCC(=O)O)C(=O)O)cc1 [Methotrexate, reference compound] |  | 4.68 ± 0.17 µM | 21.96 ± 0.15 µM | 78.2 ± 1.86% |  |  |  |  | 
